Experimental data as given in patent US20240082222A1, “4-CHLORO-N-[2-[(4-CHLOROPHENYL)METHYL]-3-OXO-1,2,4-THIADIAZOL-5-YL]BENZAMIDE FOR USE IN MEDICINE” (Betagenon AB, priority 2021, published 2024).
Where “and” joins values, the source holds several entries; their conditions need not be identical. Equal values may be shown once. Where a name gives a salt, the structure may show the parent alone.

Assay: Pharmacokinetic study in humans, sodium salt in enteric capsules, single and multiple dose (Example 2)
Assay type: in vivo, human
Description: An open, randomised, parallel-group study in healthy volunteers (hereafter referred to as subjects) was conducted to evaluate the exposure of 4-chloro-N-[2-[(4-chlorophenyl)methyl]-3-oxo-1,2,4-thiadiazol-5-yl]benzamide after single and multiple dose administration of 3 dose levels of the sodium salt of 4-chloro-N-[2-[(4-chlorophenyl)methyl]-3-oxo-1,2,4-thiadiazol-5-yl]benzamide and to evaluate combination with dapagliflozin at steady state.
For the study, Vcaps enteric capsules, size 0, were individually filled with 200 mg of milled test material together with 2 mg of sodium docusate, 125 mg of mannitol and 6.5 mg of sodium lauryl sulfate. […]
A screening visit (Visit 1) was performed within 28 days before randomisation and the start of IMP administration. The subjects were confined to the research clinic from the evening before Day 1 (Visit 2; Day—1). […]
Pre-dose safety assessments as well as pre- and post-dose PK assessments were performed. The subjects left the clinic after the last PK-sample on Day 1 and returned for a 24 h PK sample and dosing on Day 2 (Visit 3).
Subjects self-administered the test material at home from Day 3 to Day 15. A telephone visit to check compliance, AE status and use of concomitant medications will be performed on Day 8 (Visit 4).
The subjects returned to the clinic on Days 16 and 17 (Visits 5 and 6), for PK sampling and AE assessment. Visit 6 continued in the evening of Day 17, when the subjects were confined to the clinic until Day 18. On Day 18, pre- and post-dose PK and safety assessments were performed. The subjects left the clinic after the last PK sample on Day 18 and returned for a 24 h PK sample and dosing on Day 19 (Visit 7).
On Day 19 (Visit 7) subjects began co-administration of the test material and dapagliflozin (Forxiga), 10 mg per day for 7 days (Day 19 to Day 25). The subjects returned to the clinic on Day 25 (Visit 8) for final dosing, PK and safety assessments. A final end-of-study visit (Visit 9) for follow-up of safety assessments was conducted 28 days (+14 days) after Visit 8 or after early withdrawal.
Venous blood samples (approximately 5 mL) for the determination of plasma concentrations of 4-chloro-N-[2-[(4-chlorophenyl)methyl]-3-oxo-1,2,4-thiadiazol-5-yl]benzamide after administration of the test material were collected through an indwelling venous catheter on Days 1, 2, 16 to 19 and 25.
The blood samples were collected in pre-labelled Li-Heparin tubes. All the collected blood samples were be centrifuged at 1500 G for 10 minutes to separate plasma within 60 minutes from the sample is drawn. The separated plasma from each blood sample was be divided into 2 aliquots in pre-labelled polypropylene cryotubes (A and B samples, approximately 750 μL in each tube) and frozen at <−70° C. On Day 25, the plasma was divided in to 3 aliquots of at least 500 μL (A and B samples for the test material, and 1 sample for potential future analysis of dapagliflozin).
Samples for determination of plasma concentrations of 4-chloro-N[2-[(4-chlorophenyl)methyl]-3-oxo-1,2,4-thiadiazol-5-yl]benzamide were analysed by Lablytica Life Science AB, Uppsala, Sweden by means of a validated LS-MS/MS method.
The data of plasma concentration to respective time points for the analyte (4-chloro-N-[2-[(4-chlorophenyl)methyl]-3-oxo-1,2,4-thiadiazol-5-yl]benzamide) were used for the pharmacokinetic analysis. Pharmacokinetic analysis was performed using non-compartmental analysis (NCA) module of Phoenix WinNonlin 8.1 software to determine the following pharmacokinetic parameters.
After single dose administration of test material: • AUC0-24, Cmax, Tmax and dose proportionality (based on AUC0-24 and Cmax) (secondary endpoints). […]

[1] = 400 mg Dose Group, capsules once daily, Day 18, Geometric Mean
[2] = 400 mg Dose Group, capsules once daily, Day 18, Mean
[3] = 400 mg Dose Group, capsules once daily, Day 18, Median
[4] = 400 mg Dose Group, capsules once daily, Day 18, individual subjects, listed as test material
[5] = 800 mg Dose Group, capsules once daily, Day 18, Geometric Mean
[6] = 800 mg Dose Group, capsules once daily, Day 18, Mean
[7] = 800 mg Dose Group, capsules once daily, Day 18, Median
[8] = 800 mg Dose Group, capsules once daily, Day 18, individual subjects, listed as test material
[9] = 2000 mg Dose Group, capsule once daily, Day 18, Geometric Mean
[10] = 2000 mg Dose Group, capsule once daily, Day 18, Mean
[11] = 2000 mg Dose Group, capsule once daily, Day 18, Median
[12] = 2000 mg Dose Group, capsule once daily, Day 18, individual subjects, listed as test material
[13] = capsule once daily, Day 18, individual subjects, listed as test material
[14] = dose-normalised, 400 mg Dose Group, capsules once daily, Day 18, Geometric Mean
[15] = dose-normalised, 400 mg Dose Group, capsules once daily, Day 18, Mean
[16] = dose-normalised, 400 mg Dose Group, capsules once daily, Day 18, Median
[17] = dose-normalised, 400 mg Dose Group, capsules once daily, Day 18, individual subjects, listed as test material
[18] = dose-normalised, 800 mg Dose Group, capsules once daily, Day 18, Geometric Mean
[19] = dose-normalised, 800 mg Dose Group, capsules once daily, Day 18, Mean
[20] = dose-normalised, 800 mg Dose Group, capsules once daily, Day 18, Median
[21] = dose-normalised, 800 mg Dose Group, capsules once daily, Day 18, individual subjects, listed as test material
[22] = dose-normalised, 2000 mg Dose Group, capsule once daily, Day 18, Geometric Mean

increase in systemic exposure compared to a standard suspension of the active ingredient (200 mg of the sodium salt): up to five-fold
CLss_F [1]: 267.1 mL/h
Clast [1]: 62.75 µg/mL
Tlast [1]: 23.93 h
CLss_F [2]: 271.8 mL/h
Clast [2]: 64.03 µg/mL
Tlast [2]: 23.93 h
CLss_F [3]: 286.3 mL/h
Clast [3]: 60.9 µg/mL
Tlast [3]: 23.93 h
Tlast [4]: 23.9 h (6×) and 24 h
CLss_F [5]: 316.5 mL/h
Tlast [5]: 23.92 h
CLss_F [6]: 321.8 mL/h
Tlast [6]: 23.92 h
CLss_F [7]: 292.8 mL/h
Tlast [7]: 23.92 h
Tlast (800 mg Dose Group, capsules once daily, Day 18, individual subjects): 23.9 h
CLss_F [9]: 202.7 mL/h
Clast [9]: 42.19 µg/mL
Tlast [9]: 23.92 h
CLss_F [10]: 207.9 mL/h
Tlast [10]: 23.92 h
CLss_F [11]: 210.5 mL/h
Clast [11]: 38.7 µg/mL
Tlast [11]: 23.92 h
Tlast (capsule once daily, Day 18, individual subjects): 23.9 h
accumulation in the blood plasma after repeat dosing (capsules, 200-800 mg once daily): substantial accumulation
AUC_TAU_D [14]: 3.744 µg·h/mL/mg
AUClast_D [14]: 3.788 µg·h/mL/mg
Cmax_D [14]: 0.1741 µg/mL/mg
AUC_TAU_D [15]: 3.816 µg·h/mL/mg
AUClast_D [15]: 3.852 µg·h/mL/mg
Cmax_D [15]: 0.1769 µg/mL/mg
AUC_TAU_D [16]: 3.504 µg·h/mL/mg
AUClast_D [16]: 3.703 µg·h/mL/mg
Cmax_D [16]: 0.1653 µg/mL/mg
AUC_TAU_D [18]: 3.159 µg·h/mL/mg
AUClast_D [18]: 3.24 µg·h/mL/mg
Cmax_D [18]: 0.1472 µg/mL/mg
AUC_TAU_D [19]: 3.205 µg·h/mL/mg
AUClast_D [19]: 3.274 µg·h/mL/mg
Cmax_D [19]: 0.1482 µg/mL/mg
AUC_TAU_D [20]: 3.416 µg·h/mL/mg
AUClast_D [20]: 3.337 µg·h/mL/mg
Cmax_D [20]: 0.1525 µg/mL/mg
AUC_TAU_D [22]: 4.934 µg·h/mL/mg
AUClast_D [22]: 5.139 µg·h/mL/mg
Cmax D [22]: 0.2432 µg/mL/mg
AUC_TAU_D (dose-normalised, 2000 mg Dose Group, capsule once daily, Day 18, Mean): 5.082 µg·h/mL/mg
SMILES: O=C(Nc1nc(=O)n(Cc2ccc(Cl)cc2)s1)c1ccc(Cl)cc1 [Compound of formula II, sodium salt of 4-chloro-N-[2-[(4-chlorophenyl)methyl]-3-oxo-1,2,4-thiadiazol-5-yl]benzamide]
AUC_TAU [4]: 1300 µg·h/mL and 1750 µg·h/mL and 1480 µg·h/mL and 1320 µg·h/mL and 2100 µg·h/mL
AUClast [4]: 1290 µg·h/mL and 1740 µg·h/mL and 1480 µg·h/mL and 1320 µg·h/mL and 2090 µg·h/mL and 1650 µg·h/mL
CLss_F [4]: 330 mL/h and 308 mL/h and 229 mL/h and 270 mL/h and 303 mL/h and 191 mL/h
Clast [4]: 54.7 µg/mL and 50.4 µg/mL and 73.2 µg/mL and 60.9 µg/mL and 49.2 µg/mL and 86.9 µg/mL and 72.9 µg/mL
Tmax [4]: 12 h and 2 h and 3 h and 0.25 h and 23.9 h
AUC_TAU [8]: 2500 µg·h/mL and 2910 µg·h/mL and 2730 µg·h/mL and 2870 µg·h/mL
AUClast [8]: 2490 µg·h/mL and 2900 µg·h/mL and 2620 µg·h/mL and 2980 µg·h/mL and 2720 µg·h/mL and 2580 µg·h/mL and 2860 µg·h/mL
CLss_F [8]: 442 mL/h and 321 mL/h and 275 mL/h and 293 mL/h and 279 mL/h
Clast [8]: 98 μg/ml and 120 μg/ml and 115 μg/ml (2×) and 127 μg/ml and 110 μg/ml and 117 μg/ml
Cmax [8]: 118 µg/mL and 127 µg/mL and 115 µg/mL and 130 µg/mL and 126 µg/mL and 117 µg/mL and 128 µg/mL
Tmax [8]: 9.98 h and 0 h and 23.9 h and 10 h and 6 h
AUC_TAU [12]: 1130 µg·h/mL and 841 µg·h/mL and 1600 µg·h/mL and 802 µg·h/mL and 950 µg·h/mL and 774 µg·h/mL and 1010 µg·h/mL
CLss_F [12]: 176 mL/h and 238 mL/h and 125 mL/h and 249 mL/h and 210 mL/h and 259 mL/h and 198 mL/h
Tmax [12]: 0.267 h and 23.9 h and 0 h and 10 h and 12 h
AUClast [13]: 1130 µg·h/mL and 1400 µg·h/mL and 838 µg·h/mL and 1600 µg·h/mL and 800 µg·h/mL and 947 µg·h/mL and 772 µg·h/mL and 1010 µg·h/mL
Clast [13]: 47 µg/mL and 62 µg/mL and 33.5 µg/mL and 68 µg/mL and 33.3 µg/mL and 36.7 µg/mL and 30.4 µg/mL and 40.7 µg/mL
Cmax [13]: 52.1 µg/mL and 62 µg/mL and 42 µg/mL and 71.9 µg/mL and 40.2 µg/mL and 46.2 µg/mL and 34.6 µg/mL and 49.9 µg/mL
AUC_TAU_D [17]: 3.03 µg·h/mL/mg and 3.24 µg·h/mL/mg and 4.37 µg·h/mL/mg and 3.71 µg·h/mL/mg and 3.3 µg·h/mL/mg and 5.24 µg·h/mL/mg
AUClast_D [17]: 3.02 µg·h/mL/mg and 3.23 µg·h/mL/mg and 4.36 µg·h/mL/mg and 3.7 µg·h/mL/mg and 3.29 µg·h/mL/mg and 5.23 µg·h/mL/mg and 4.13 µg·h/mL/mg
Cmax_D [17]: 0.141 µg/mL/mg and 0.15 µg/mL/mg and 0.193 µg/mL/mg and 0.165 µg/mL/mg and 0.161 µg/mL/mg and 0.248 µg/mL/mg and 0.182 µg/mL/mg
AUC_TAU_D [21]: 2.26 µg·h/mL/mg and 3.12 µg·h/mL/mg and 3.64 µg·h/mL/mg and 3.27 µg·h/mL/mg and 3.42 µg·h/mL/mg and 3.59 µg·h/mL/mg
AUClast_D [21]: 2.25 µg·h/mL/mg and 3.11 µg·h/mL/mg and 3.63 µg·h/mL/mg and 144 µg·h/mL/mg and 3.73 µg·h/mL/mg and 3.4 µg·h/mL/mg and 3.22 µg·h/mL/mg and 3.58 µg·h/mL/mg
Cmax_D [21]: 0.109 µg/mL/mg and 0.148 µg/mL/mg and 0.159 µg/mL/mg and 0 µg/mL/mg and 0.163 µg/mL/mg and 0.158 µg/mL/mg and 0.146 µg/mL/mg and 0.16 µg/mL/mg
